The target in assay [1] is Epidermal growth factor receptor (Homo sapiens) (UniProt P00533). The experiment in a line: Inhibition of human EGFR assessed as residual activity at 1 uM relative to control.
Assay [2] concerns the target Phosphatidylinositol 4-phosphate 5-kinase type-1 alpha (Homo sapiens) (UniProt Q99755). The experiment in a line: Inhibition of human PIP5K1alpha assessed as residual activity at 1 uM relative to control.
Assay [3] has as its target SRSF protein kinase 1 (Homo sapiens) (UniProt Q96SB4). Kind of assay: Inhibition of human SRPK1 assessed as residual activity at 1 uM relative to control.
Assay [4] deals with Receptor tyrosine-protein kinase erbB-4 (Homo sapiens) (UniProt Q15303). The experiment in a line: Inhibition of human ERBB4 assessed as residual activity at 1 uM relative to control.
Assay [5] has as its target Platelet-derived growth factor receptor beta (Homo sapiens) (UniProt P09619). Kind of assay: Inhibition of human PDGFRbeta assessed as residual activity at 1 uM relative to control.
For assay [6], the target named is Proto-oncogene tyrosine-protein kinase ROS (Homo sapiens) (UniProt P08922). Kind of assay: Inhibition of human ROS assessed as residual activity at 1 uM relative to control.
Assay [7] concerns the target Focal adhesion kinase 1 (Homo sapiens) (UniProt Q05397). The experiment in a line: Inhibition of human FAK assessed as residual activity at 1 uM relative to control.
Assay [8] deals with Fibroblast growth factor receptor 3 (Homo sapiens) (UniProt P22607). The experiment in a line: Inhibition of human FGFR3 assessed as residual activity at 1 uM relative to control.
In assay [9] the target is T1, Mitogen-activated protein kinase kinase kinase 7 (Homo sapiens) (UniProt O43318).
T1 sequence (whole entry): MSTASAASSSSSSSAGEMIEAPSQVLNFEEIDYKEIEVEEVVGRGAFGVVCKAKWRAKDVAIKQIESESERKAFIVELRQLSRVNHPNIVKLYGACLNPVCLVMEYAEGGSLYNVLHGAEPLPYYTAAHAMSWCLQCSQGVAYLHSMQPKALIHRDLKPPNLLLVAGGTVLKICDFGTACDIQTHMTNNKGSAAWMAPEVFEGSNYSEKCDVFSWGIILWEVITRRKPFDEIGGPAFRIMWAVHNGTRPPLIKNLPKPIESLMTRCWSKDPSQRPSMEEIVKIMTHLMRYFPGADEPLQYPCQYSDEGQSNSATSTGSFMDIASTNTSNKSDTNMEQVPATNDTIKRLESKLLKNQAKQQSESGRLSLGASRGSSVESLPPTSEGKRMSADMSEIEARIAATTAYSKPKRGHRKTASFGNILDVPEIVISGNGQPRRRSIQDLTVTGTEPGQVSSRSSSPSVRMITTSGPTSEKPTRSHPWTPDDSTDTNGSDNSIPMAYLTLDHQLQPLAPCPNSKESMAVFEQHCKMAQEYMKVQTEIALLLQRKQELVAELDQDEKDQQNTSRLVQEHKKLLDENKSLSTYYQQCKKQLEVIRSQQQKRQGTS
The experiment in a line: Inhibition of human TAK1 assessed as residual activity at 1 uM relative to control.

Assay [10] concerns the target T2, NUAK family SNF1-like kinase 1 (Homo sapiens) (UniProt O60285).
T2 sequence (whole entry): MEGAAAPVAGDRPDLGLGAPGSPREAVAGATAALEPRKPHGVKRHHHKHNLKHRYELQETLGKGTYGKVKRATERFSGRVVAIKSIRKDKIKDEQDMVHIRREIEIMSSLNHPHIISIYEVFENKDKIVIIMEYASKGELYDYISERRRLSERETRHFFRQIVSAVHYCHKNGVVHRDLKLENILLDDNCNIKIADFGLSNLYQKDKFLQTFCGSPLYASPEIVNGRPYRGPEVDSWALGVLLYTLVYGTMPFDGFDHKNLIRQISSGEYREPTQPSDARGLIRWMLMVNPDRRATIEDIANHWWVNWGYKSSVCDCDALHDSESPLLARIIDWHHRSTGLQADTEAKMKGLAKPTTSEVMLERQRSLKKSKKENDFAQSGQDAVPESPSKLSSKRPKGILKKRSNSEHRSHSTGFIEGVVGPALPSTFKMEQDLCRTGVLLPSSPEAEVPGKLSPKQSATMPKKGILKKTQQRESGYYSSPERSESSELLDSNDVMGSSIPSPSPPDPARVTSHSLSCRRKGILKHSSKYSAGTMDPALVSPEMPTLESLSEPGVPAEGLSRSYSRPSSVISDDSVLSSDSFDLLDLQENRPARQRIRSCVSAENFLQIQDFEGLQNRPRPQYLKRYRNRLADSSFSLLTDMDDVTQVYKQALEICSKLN
Kind of assay: Inhibition of human ARK5 assessed as residual activity at 1 uM relative to control.

In assay [11] the target is High affinity nerve growth factor receptor (Homo sapiens) (UniProt P04629). Kind of assay: Inhibition of human TRKA assessed as residual activity at 1 uM relative to control.
For assay [12], the target named is Proto-oncogene tyrosine-protein kinase Src (Homo sapiens) (UniProt P12931). The experiment in a line: Inhibition of human SRC (1 to 530) assessed as residual activity at 1 uM relative to control.
The target of assay [13] is Vascular endothelial growth factor receptor 2 (Homo sapiens) (UniProt P35968). The experiment in a line: Inhibition of human KDR assessed as residual activity at 1 uM relative to control.
The target in a further assay is Aurora kinase B (Homo sapiens, UniProt Q96GD4). Kind of assay: Inhibition of aurora B (unknown origin).
In assay [14] the target is T3, MAP kinase-activated protein kinase 5 (Homo sapiens) (UniProt Q8IW41).
T3 sequence (whole entry): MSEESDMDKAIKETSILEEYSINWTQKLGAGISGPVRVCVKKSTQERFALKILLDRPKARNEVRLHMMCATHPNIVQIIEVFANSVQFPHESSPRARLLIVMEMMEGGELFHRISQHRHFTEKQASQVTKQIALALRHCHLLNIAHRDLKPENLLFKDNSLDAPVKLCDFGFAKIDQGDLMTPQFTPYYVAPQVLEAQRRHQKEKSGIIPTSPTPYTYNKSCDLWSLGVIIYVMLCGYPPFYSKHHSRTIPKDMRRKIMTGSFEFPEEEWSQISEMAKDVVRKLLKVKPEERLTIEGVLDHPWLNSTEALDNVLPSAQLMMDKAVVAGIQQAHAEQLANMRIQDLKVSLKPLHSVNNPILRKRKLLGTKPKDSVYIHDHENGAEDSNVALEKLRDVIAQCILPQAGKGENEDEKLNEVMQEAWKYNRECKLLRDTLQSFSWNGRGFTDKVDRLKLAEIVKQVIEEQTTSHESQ
Kind of assay: Inhibition of human PRAK assessed as residual activity at 1 uM relative to control.

Assay [15] deals with Tyrosine-protein kinase JAK2 (Homo sapiens) (UniProt O60674). The experiment in a line: Inhibition of human JAK2 assessed as residual activity at 1 uM relative to control.
In assay [16] the target is Ribosomal protein S6 kinase alpha-5 (Homo sapiens) (UniProt O75582). The experiment in a line: Inhibition of human MSK1 assessed as residual activity at 1 uM relative to control.
For assay [17], the target named is 3-phosphoinositide-dependent protein kinase 1 (Homo sapiens) (UniProt O15530). The experiment in a line: Inhibition of human PDK1 assessed as residual activity at 1 uM relative to control.

For three molecules, Activity and IC50 results are on record in ChEMBL document CHEMBL3124838, “Discovery of 6-aryl-azabenzimidazoles that inhibit the TBK1/IKK-ε kinases” (Bioorg Med Chem Lett, 2014).

Chain of Fibroblast growth factor receptor 3 (Homo sapiens) (P22607 23-806 limits assumed): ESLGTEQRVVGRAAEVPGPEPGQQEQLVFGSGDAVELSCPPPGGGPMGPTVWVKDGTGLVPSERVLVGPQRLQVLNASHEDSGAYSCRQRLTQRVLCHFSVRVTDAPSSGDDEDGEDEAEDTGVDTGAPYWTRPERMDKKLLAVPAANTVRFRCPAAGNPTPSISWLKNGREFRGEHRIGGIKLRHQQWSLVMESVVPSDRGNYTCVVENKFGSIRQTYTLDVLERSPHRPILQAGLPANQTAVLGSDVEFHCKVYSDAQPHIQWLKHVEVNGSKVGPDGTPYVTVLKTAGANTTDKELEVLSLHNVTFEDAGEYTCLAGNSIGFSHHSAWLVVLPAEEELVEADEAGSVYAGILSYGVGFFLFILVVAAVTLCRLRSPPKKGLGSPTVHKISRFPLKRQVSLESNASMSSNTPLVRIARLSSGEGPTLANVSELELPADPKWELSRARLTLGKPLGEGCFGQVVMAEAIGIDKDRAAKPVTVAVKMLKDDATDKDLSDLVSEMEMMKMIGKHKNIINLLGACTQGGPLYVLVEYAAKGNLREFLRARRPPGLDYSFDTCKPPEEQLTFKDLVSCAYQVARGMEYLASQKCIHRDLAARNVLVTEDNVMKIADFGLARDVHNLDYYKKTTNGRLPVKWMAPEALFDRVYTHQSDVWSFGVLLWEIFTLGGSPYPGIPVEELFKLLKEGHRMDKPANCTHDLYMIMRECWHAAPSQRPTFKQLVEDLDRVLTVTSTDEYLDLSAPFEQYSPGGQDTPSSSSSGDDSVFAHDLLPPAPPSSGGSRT
Chain of Epidermal growth factor receptor (Homo sapiens) (P00533 whole entry): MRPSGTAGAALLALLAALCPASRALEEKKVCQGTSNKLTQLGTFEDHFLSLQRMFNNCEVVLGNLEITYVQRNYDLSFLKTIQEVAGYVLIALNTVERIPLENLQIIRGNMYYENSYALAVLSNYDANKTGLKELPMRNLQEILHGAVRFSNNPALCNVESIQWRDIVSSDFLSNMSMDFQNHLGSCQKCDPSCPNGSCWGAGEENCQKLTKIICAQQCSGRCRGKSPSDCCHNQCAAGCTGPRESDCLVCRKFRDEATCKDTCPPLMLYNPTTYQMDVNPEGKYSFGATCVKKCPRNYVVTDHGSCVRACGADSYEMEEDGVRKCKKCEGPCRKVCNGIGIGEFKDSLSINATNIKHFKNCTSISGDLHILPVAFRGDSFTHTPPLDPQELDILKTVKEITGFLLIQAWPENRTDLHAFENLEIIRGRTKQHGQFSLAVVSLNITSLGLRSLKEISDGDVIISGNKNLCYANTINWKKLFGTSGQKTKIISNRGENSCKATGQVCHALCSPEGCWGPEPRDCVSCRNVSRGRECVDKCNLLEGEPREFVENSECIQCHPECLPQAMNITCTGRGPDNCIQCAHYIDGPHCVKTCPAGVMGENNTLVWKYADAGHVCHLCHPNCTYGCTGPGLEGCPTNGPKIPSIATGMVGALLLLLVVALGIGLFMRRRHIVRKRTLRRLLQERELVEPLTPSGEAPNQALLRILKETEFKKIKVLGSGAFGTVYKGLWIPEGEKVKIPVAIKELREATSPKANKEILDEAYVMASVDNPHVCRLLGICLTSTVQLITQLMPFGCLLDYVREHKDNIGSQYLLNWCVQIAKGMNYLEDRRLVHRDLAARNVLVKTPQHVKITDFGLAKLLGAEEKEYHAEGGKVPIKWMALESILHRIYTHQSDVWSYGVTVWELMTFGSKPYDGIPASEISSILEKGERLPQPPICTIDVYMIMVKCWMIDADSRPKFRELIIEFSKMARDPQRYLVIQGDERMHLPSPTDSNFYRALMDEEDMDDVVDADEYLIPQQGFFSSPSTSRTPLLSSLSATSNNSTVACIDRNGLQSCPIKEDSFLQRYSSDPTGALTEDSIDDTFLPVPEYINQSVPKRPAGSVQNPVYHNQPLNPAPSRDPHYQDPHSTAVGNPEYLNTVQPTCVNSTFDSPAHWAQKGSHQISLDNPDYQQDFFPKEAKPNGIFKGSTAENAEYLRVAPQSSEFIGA
Chain of Aurora kinase B (Q96GD4 whole entry): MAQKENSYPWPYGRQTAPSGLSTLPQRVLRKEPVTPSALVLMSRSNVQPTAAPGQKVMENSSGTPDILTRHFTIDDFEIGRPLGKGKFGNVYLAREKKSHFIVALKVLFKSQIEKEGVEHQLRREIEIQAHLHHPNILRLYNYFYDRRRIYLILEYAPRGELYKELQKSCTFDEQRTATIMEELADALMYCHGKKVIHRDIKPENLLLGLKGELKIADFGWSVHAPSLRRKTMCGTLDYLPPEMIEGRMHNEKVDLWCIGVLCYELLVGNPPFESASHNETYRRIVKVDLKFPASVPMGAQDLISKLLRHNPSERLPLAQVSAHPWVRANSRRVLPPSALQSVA
Chain of 3-phosphoinositide-dependent protein kinase 1 (Homo sapiens) (O15530 whole entry, looked up): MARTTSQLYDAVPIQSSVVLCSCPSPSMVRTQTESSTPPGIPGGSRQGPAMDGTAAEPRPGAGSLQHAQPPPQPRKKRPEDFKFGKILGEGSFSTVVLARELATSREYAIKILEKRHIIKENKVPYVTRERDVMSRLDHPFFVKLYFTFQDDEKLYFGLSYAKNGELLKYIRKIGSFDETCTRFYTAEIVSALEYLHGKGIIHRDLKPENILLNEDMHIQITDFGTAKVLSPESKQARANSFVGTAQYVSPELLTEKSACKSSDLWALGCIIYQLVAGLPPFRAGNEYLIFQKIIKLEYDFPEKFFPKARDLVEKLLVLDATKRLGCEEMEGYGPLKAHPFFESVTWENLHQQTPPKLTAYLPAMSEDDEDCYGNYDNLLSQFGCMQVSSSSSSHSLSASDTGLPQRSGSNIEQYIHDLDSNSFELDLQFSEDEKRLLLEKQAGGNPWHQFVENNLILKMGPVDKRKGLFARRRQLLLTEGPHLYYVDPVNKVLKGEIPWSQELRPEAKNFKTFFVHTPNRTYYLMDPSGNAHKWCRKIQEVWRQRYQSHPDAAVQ
Chain of Platelet-derived growth factor receptor beta (Homo sapiens) (P09619 whole entry): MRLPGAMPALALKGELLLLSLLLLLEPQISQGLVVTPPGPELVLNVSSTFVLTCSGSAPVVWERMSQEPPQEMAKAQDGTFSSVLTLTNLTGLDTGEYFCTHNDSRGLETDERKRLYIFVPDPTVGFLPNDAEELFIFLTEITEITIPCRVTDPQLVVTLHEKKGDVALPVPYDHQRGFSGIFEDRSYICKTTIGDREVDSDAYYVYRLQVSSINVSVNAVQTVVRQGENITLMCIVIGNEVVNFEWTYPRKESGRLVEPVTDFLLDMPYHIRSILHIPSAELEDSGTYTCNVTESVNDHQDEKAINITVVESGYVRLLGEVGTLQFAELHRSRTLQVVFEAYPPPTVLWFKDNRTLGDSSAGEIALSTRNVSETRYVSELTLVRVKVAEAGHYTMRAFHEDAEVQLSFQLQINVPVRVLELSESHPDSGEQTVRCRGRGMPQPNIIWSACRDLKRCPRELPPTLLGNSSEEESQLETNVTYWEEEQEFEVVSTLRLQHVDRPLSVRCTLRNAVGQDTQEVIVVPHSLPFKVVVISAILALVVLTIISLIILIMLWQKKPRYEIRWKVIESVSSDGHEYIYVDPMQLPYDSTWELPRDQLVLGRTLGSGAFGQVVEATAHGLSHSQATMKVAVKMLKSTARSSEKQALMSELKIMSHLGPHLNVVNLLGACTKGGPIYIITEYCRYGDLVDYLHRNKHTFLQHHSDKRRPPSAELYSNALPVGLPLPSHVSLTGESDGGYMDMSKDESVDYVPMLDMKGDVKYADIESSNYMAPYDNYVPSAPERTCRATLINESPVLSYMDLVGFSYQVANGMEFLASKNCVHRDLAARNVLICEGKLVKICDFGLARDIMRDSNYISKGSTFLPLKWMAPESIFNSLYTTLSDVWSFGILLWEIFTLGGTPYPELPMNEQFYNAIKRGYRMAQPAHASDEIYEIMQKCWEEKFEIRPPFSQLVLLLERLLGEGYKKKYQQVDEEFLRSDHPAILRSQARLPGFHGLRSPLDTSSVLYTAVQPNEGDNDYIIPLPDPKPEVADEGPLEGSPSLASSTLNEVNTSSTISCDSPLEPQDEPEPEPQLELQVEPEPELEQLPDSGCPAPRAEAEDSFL
Chain of Focal adhesion kinase 1 (Homo sapiens) (Q05397 2-1052 limits assumed): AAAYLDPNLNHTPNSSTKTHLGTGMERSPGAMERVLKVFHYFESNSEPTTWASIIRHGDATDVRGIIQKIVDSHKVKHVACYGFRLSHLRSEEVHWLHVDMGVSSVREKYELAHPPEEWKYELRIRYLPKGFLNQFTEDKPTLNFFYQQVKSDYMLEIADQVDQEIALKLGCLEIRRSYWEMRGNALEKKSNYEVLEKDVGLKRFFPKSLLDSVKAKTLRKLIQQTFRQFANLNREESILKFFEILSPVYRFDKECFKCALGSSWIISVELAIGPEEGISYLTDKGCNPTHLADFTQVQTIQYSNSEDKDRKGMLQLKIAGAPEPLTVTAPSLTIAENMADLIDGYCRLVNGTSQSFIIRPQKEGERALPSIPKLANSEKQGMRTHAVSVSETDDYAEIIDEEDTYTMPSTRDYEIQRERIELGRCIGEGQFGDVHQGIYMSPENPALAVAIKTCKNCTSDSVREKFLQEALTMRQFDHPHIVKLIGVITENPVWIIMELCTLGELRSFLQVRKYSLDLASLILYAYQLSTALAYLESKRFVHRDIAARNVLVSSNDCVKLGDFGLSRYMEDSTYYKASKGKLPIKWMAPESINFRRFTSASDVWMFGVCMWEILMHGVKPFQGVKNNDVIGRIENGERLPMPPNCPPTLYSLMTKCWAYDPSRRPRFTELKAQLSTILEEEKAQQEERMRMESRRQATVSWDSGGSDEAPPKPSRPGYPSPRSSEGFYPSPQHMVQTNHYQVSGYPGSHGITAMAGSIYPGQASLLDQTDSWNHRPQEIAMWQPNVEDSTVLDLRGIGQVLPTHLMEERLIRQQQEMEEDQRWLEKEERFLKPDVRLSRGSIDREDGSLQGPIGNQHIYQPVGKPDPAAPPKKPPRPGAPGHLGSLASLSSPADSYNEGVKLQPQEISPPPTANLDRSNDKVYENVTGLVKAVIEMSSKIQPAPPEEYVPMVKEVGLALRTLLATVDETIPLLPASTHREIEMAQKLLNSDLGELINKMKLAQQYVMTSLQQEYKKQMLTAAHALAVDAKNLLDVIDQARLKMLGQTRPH

One may read the IC50 as the concentration at which inhibition is half-maximal. Low values mean inhibition by little substance, high ones a need for much substance. Consider `COc1ccc(-c2nc3cc(-c4csc(C(=O)NCC(C)(C)C)c4)cnc3[nH]2)cc1`, for which the Activity in [1] was determined as 97%; in [2], 95%; in assay [3] it was 94%; in assay [4], 91%; in assay [5] it was 82%; in [6], 81%. For the same molecule, the Activity in assay [7] was determined as 80%; in assay [8], 80%; in assay [9] it was 79%; in assay [10], 79%; in assay [11], 77%; in [12], 47%. In addition, the Activity in assay [13] amounted to 31%; in assay [14] it was 115%; in assay [15], 105%; in assay [16] it was 104%; in assay [17], 85%. Also, the half-inhibitory concentration (IC50) against Aurora kinase B was determined as 1.44 µM.
Turning to `COc1ccc(-c2nc3cc(-c4csc(C(=O)NCCC(C)C)c4)cnc3[nH]2)cc1`, the Activity in assay [1] is 89%; in [2] it was 99%; in [3], 96%; in assay [4], 93%; in assay [5], 70%; in [6], 82%. Besides, the Activity was determined as 90% in assay [7]; 79% in assay [8]; 85% in assay [9]; 76% in assay [10]; 67% in assay [11]; 23% in assay [12]. In addition, the Activity in assay [13] worked out at 23%; in [14] it was 102%; in assay [15], 100%; in [16] it was 104%; in assay [17] it was 80%. Further, the IC50 on Aurora kinase B turned out to be 18.8 µM.
`COc1ccc(-c2nc3cc(-c4csc(C(=O)NCC(C)C)c4)cnc3[nH]2)cc1`: the Activity stood at 102% in assay [1]; 99% in assay [2]; 91% in [3]; 98% in [4]; 64% in assay [5]; 93% in assay [6]. For the same molecule, the Activity turned out to be 91% in assay [7]; 62% in assay [8]; 85% in [9]; 68% in assay [10]; 59% in assay [11]; 25% in assay [12]. Moreover, the Activity was found to be 14% in assay [13]; 112% in assay [14]; 108% in assay [15]; 100% in assay [16]; 91% in assay [17]. This molecule gave an IC50 on Aurora kinase B of 5.92 µM.
